Starred links: 1 amine or outer side, 2 acyl side, 3 side chain; linkers in the order of their positions; H or OH if unused. Positions of bridges follow the written chain, without caps; N, C: chain ends. Non-standard residues stand in square brackets, D forms with d. Chains are numbered I, II in the order given. X2 = O=C(CCOCCN(CCOCCC(=O)NCCOCCOCCOCCOCCOCCOCCOCCOCCOCCOCCOCCOCCOCCOCCOCCOCCOCCOCCOCCOCCOCCOCCOCCn1nnc2c1CCC1C(CC2)C1COC(=O)[*:2])CCOCCC(=O)NCCOCCOCCOCCOCCOCCOCCOCCOCCOCCOCCOCCOCCOCCOCCOCCOCCOCCOCCOCCOCCOCCOCCOCCn1nnc2c1CCC1C(CC2)C1COC(=O)[*:3])NCCOCCOCCOCCOCCOCCOCCOCCOCCOCCOCCOCCOCCOCCOCCOCCOCCOCCOCCOCCOCCOCCOCCOCCn1nnc2c1CCC1C(CC2)C1COC(=O)[*:1]; TATA = O=C(CC[*:1])N1CN(C(=O)CC[*:2])CN(C(=O)CC[*:3])C1; Nle = CCCC[C@H](N)C(=O)O
Biological target: CD137 (Homo sapiens, UniProt Q07011)
Experiment: CD137 Promega reporter cell activity assay (NF-κB luciferase in Jurkat cells)
Details: for Average Fold EC50 Improvement relative to CD137L: Average EC50 for CD137L = 14.2 nM; for Average Relative Fold Induction relative to CD137L: Average fold induction for CD137L = 4.0

Chain of CD137 (Q07011 24-255): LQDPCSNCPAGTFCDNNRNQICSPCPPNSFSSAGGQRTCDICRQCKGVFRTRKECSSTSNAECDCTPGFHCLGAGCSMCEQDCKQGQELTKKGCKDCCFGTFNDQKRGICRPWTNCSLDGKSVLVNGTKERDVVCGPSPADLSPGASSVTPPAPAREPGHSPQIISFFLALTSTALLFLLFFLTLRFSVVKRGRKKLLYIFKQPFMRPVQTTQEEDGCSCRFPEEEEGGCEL

Compound	Average Fold EC50 Improvement relative to CD137L	Average Relative Fold Induction relative to CD137L	EC50 (read-out: Average EC50, reference substance of Table 4A / 4B)	Average fold induction (reference substance of Table 4A / 4B)
CCCC[C@@H]1NC(=O)[C@H](Cc2ccc(O)cc2)NC(=O)[C@@H]2CCCN2C(=O)[C@H](CC(=O)O)NC(=O)[C@H](C)NC(=O)[C@H](CCCCNC(=O)OCC2C3CCc4nnn(CCOCCOCCOCCOCCOCCOCCOCCOCCOCCOCCOCCOCCOCCOCCOCCOCCOCCOCCOCCOCCOCCOCCOCCNC(=O)CCOCC(COCCC(=O)NCCOCCOCCOCCOCCOCCOCCOCCOCCOCCOCCOCCOCCOCCOCCOCCOCCOCCOCCOCCOCCOCCOCCOCCn5nnc6c5CCC5C(CC6)C5COC(=O)NCCCC[C@@H]5NC(=O)[C@@H]6CSCCC(=O)N7CN(CN(C7)C(=O)CCSC[C@@H](C(=O)N[C@@H](C)C(N)=O)NC(=O)[C@H](CCCC)NC(=O)[C@H](Cc7ccc(O)cc7)NC(=O)[C@@H]7CCCN7C(=O)[C@H](CC(=O)O)NC(=O)[C@H](C)NC5=O)C(=O)CCSC[C@H](NC(=O)[C@H](C)NC(C)=O)C(=O)N[C@@H]([C@@H](C)CC)C(=O)N[C@@H](CCC(=O)O)C(=O)N[C@@H](CCC(=O)O)C(=O)NCC(=O)N[C@@H](CCC(N)=O)C(=O)N[C@@H](Cc5ccc(O)cc5)C(=O)N6)(COCCC(=O)NCCOCCOCCOCCOCCOCCOCCOCCOCCOCCOCCOCCOCCOCCOCCOCCOCCOCCOCCOCCOCCOCCOCCOCCn5nnc6c5CCC5C(CC6)C5COC(=O)NCCCC[C@@H]5NC(=O)[C@@H]6CSCCC(=O)N7CN(CN(C7)C(=O)CCSC[C@@H](C(=O)N[C@@H](C)C(N)=O)NC(=O)[C@H](CCCC)NC(=O)[C@H](Cc7ccc(O)cc7)NC(=O)[C@@H]7CCCN7C(=O)[C@H](CC(=O)O)NC(=O)[C@H](C)NC5=O)C(=O)CCSC[C@H](NC(=O)[C@H](C)NC(C)=O)C(=O)N[C@@H]([C@@H](C)CC)C(=O)N[C@@H](CCC(=O)O)C(=O)N[C@@H](CCC(=O)O)C(=O)NCC(=O)N[C@@H](CCC(N)=O)C(=O)N[C@@H](Cc5ccc(O)cc5)C(=O)N6)COCCC(=O)NCCOCCOCCOCCOCCOCCOCCOCCOCCOCCOCCOCCOCCOCCOCCOCCOCCOCCOCCOCCOCCOCCOCCOCCn5nnc6c5CCC5C(CC6)C5COC(=O)NCCCC[C@@H]5NC(=O)[C@@H]6CSCCC(=O)N7CN(CN(C7)C(=O)CCSC[C@@H](C(=O)N[C@@H](C)C(N)=O)NC(=O)[C@H](CCCC)NC(=O)[C@H](Cc7ccc(O)cc7)NC(=O)[C@@H]7CCCN7C(=O)[C@H](CC(=O)O)NC(=O)[C@H](C)NC5=O)C(=O)CCSC[C@H](NC(=O)[C@H](C)NC(C)=O)C(=O)N[C@@H]([C@@H](C)CC)C(=O)N[C@@H](CCC(=O)O)C(=O)N[C@@H](CCC(=O)O)C(=O)NCC(=O)N[C@@H](CCC(N)=O)C(=O)N[C@@H](Cc5ccc(O)cc5)C(=O)N6)c4CCC32)NC(=O)[C@@H]2CSCCC(=O)N3CN(CN(C3)C(=O)CCSC[C@@H](C(=O)N[C@@H](C)C(N)=O)NC1=O)C(=O)CCSC[C@H](NC(=O)[C@H](C)NC(C)=O)C(=O)N[C@@H]([C@@H](C)CC)C(=O)N[C@@H](CCC(=O)O)C(=O)N[C@@H](CCC(=O)O)C(=O)NCC(=O)N[C@@H](CCC(N)=O)C(=O)N[C@@H](Cc1ccc(O)cc1)C(=O)N2 (stereo partly shown) [BCY8148]	18.71	1.20	–	–
CD137L: the natural ligand (CD137L) for activation of CD137	–	–	14.2 nM	**Average fold induction for CD137L = 4.0
CCCC[C@@H]1NC(=O)[C@H](Cc2ccc(O)cc2)NC(=O)[C@@H]2CCCN2C(=O)[C@H](CC(=O)O)NC(=O)[C@H](C)NC(=O)[C@H](CCCCNC(=O)OCC2C3CCc4nnn(CCOCCOCCOCCOCCOCCOCCOCCOCCOCCOCCNC(=O)CCOCC(COCCC(=O)NCCOCCOCCOCCOCCOCCOCCOCCOCCOCCOCCn5nnc6c5CCC5C(CC6)C5COC(=O)NCCCC[C@@H]5NC(=O)[C@@H]6CSCCC(=O)N7CN(CN(C7)C(=O)CCSC[C@@H](C(=O)N[C@@H](C)C(N)=O)NC(=O)[C@H](CCCC)NC(=O)[C@H](Cc7ccc(O)cc7)NC(=O)[C@@H]7CCCN7C(=O)[C@H](CC(=O)O)NC(=O)[C@H](C)NC5=O)C(=O)CCSC[C@H](NC(=O)[C@H](C)NC(C)=O)C(=O)N[C@@H]([C@@H](C)CC)C(=O)N[C@@H](CCC(=O)O)C(=O)N[C@@H](CCC(=O)O)C(=O)NCC(=O)N[C@@H](CCC(N)=O)C(=O)N[C@@H](Cc5ccc(O)cc5)C(=O)N6)(COCCC(=O)NCCOCCOCCOCCOCCOCCOCCOCCOCCOCCOCCn5nnc6c5CCC5C(CC6)C5COC(=O)NCCCC[C@@H]5NC(=O)[C@@H]6CSCCC(=O)N7CN(CN(C7)C(=O)CCSC[C@@H](C(=O)N[C@@H](C)C(N)=O)NC(=O)[C@H](CCCC)NC(=O)[C@H](Cc7ccc(O)cc7)NC(=O)[C@@H]7CCCN7C(=O)[C@H](CC(=O)O)NC(=O)[C@H](C)NC5=O)C(=O)CCSC[C@H](NC(=O)[C@H](C)NC(C)=O)C(=O)N[C@@H]([C@@H](C)CC)C(=O)N[C@@H](CCC(=O)O)C(=O)N[C@@H](CCC(=O)O)C(=O)NCC(=O)N[C@@H](CCC(N)=O)C(=O)N[C@@H](Cc5ccc(O)cc5)C(=O)N6)COCCC(=O)NCCOCCOCCOCCOCCOCCOCCOCCOCCOCCOCCn5nnc6c5CCC5C(CC6)C5COC(=O)NCCCC[C@@H]5NC(=O)[C@@H]6CSCCC(=O)N7CN(CN(C7)C(=O)CCSC[C@@H](C(=O)N[C@@H](C)C(N)=O)NC(=O)[C@H](CCCC)NC(=O)[C@H](Cc7ccc(O)cc7)NC(=O)[C@@H]7CCCN7C(=O)[C@H](CC(=O)O)NC(=O)[C@H](C)NC5=O)C(=O)CCSC[C@H](NC(=O)[C@H](C)NC(C)=O)C(=O)N[C@@H]([C@@H](C)CC)C(=O)N[C@@H](CCC(=O)O)C(=O)N[C@@H](CCC(=O)O)C(=O)NCC(=O)N[C@@H](CCC(N)=O)C(=O)N[C@@H](Cc5ccc(O)cc5)C(=O)N6)c4CCC32)NC(=O)[C@@H]2CSCCC(=O)N3CN(CN(C3)C(=O)CCSC[C@@H](C(=O)N[C@@H](C)C(N)=O)NC1=O)C(=O)CCSC[C@H](NC(=O)[C@H](C)NC(C)=O)C(=O)N[C@@H]([C@@H](C)CC)C(=O)N[C@@H](CCC(=O)O)C(=O)N[C@@H](CCC(=O)O)C(=O)NCC(=O)N[C@@H](CCC(N)=O)C(=O)N[C@@H](Cc1ccc(O)cc1)C(=O)N2 (stereo partly shown) [BCY8147]	50.58	1.04	–	–
CC[C@H](C)[C@@H]1NC(=O)[C@@H](NC(=O)[C@H](C)NC(C)=O)CSCCC(=O)N2CN3CN(C2)C(=O)CCSC[C@H](NC(=O)[C@H](Cc2ccc(O)cc2)NC(=O)[C@H](CCC(N)=O)NC(=O)CNC(=O)[C@H](CCC(=O)O)NC(=O)[C@H](CCC(=O)O)NC1=O)C(=O)N[C@@H](Cc1ccccc1)C(=O)N[C@@H](C)C(=O)N[C@@H](CC(=O)O)C(=O)N1CCC[C@H]1C(=O)N[C@@H](Cc1ccc(O)cc1)C(=O)N[C@@H](CCCCNC(=O)OCC1C2CCc4nnn(CCOCCOCCOCCOCCOCCOCCOCCOCCOCCOCCOCCOCCOCCOCCOCCOCCOCCOCCOCCOCCOCCOCCOCCNC(=O)CCOCCN(CCOCCC(=O)NCCOCCOCCOCCOCCOCCOCCOCCOCCOCCOCCOCCOCCOCCOCCOCCOCCOCCOCCOCCOCCOCCOCCOCCn5nnc6c5CCC5C(CC6)C5COC(=O)NCCCC[C@@H]5NC(=O)[C@H](Cc6ccc(O)cc6)NC(=O)[C@@H]6CCCN6C(=O)[C@H](CC(=O)O)NC(=O)[C@H](C)NC(=O)[C@H](Cc6ccccc6)NC(=O)[C@@H]6CSCCC(=O)N7CN(CN(C7)C(=O)CCSC[C@@H](C(=O)N[C@@H](C)C(N)=O)NC5=O)C(=O)CCSC[C@H](NC(=O)[C@H](C)NC(C)=O)C(=O)N[C@@H]([C@@H](C)CC)C(=O)N[C@@H](CCC(=O)O)C(=O)N[C@@H](CCC(=O)O)C(=O)NCC(=O)N[C@@H](CCC(N)=O)C(=O)N[C@@H](Cc5ccc(O)cc5)C(=O)N6)CCOCCC(=O)NCCOCCOCCOCCOCCOCCOCCOCCOCCOCCOCCOCCOCCOCCOCCOCCOCCOCCOCCOCCOCCOCCOCCOCCn5nnc6c5CCC5C(CC6)C5COC(=O)NCCCC[C@@H]5NC(=O)[C@H](Cc6ccc(O)cc6)NC(=O)[C@@H]6CCCN6C(=O)[C@H](CC(=O)O)NC(=O)[C@H](C)NC(=O)[C@H](Cc6ccccc6)NC(=O)[C@@H]6CSCCC(=O)N7CN(CN(C7)C(=O)CCSC[C@@H](C(=O)N[C@@H](C)C(N)=O)NC5=O)C(=O)CCSC[C@H](NC(=O)[C@H](C)NC(C)=O)C(=O)N[C@@H]([C@@H](C)CC)C(=O)N[C@@H](CCC(=O)O)C(=O)N[C@@H](CCC(=O)O)C(=O)NCC(=O)N[C@@H](CCC(N)=O)C(=O)N[C@@H](Cc5ccc(O)cc5)C(=O)N6)c4CCC21)C(=O)N[C@H](C(=O)N[C@@H](C)C(N)=O)CSCCC3=O (stereo partly shown) [BCY8107]	64.33	0.64	–	–
I: Ac-ACIEEGQYCKADPY[Nle]CA-NH2 / II: Ac-ACIEEGQYCKADPY[Nle]CA-NH2 / III: Ac-ACIEEGQYCKADPY[Nle]CA-NH2 (linker I:2-I:9-I:16, II:2-II:9-II:16, III:2-III:9-III:16 via TATA; linker I:10-II:10-III:10 via X2) [BCY8146]	5.11	0.83	–	–

Reference: patent US11542304B2, “Multimeric bicyclic peptide ligands” (BicycleTx Limited, priority 2018, dated 2023)
